Row | SMILES | melting point [°C]
1 | Clc1ccc([C@H]2Cc3cnc(Nc4ccccc4)nc3-c3ccccc32)cc1Cl | 156 to 157
2 | O=C(OCC1CCCN1)N1CCN(c2cc(N3CCCC3)nc(N3CCCC3)n2)CC1 (single isomer, unassigned; (+)) | 137 to 138
3 | CC(=O)Nc1ccc2[nH]c(=O)c(=O)n(CC(C)(C)C)c2c1 | 294 to 295
4 | CCOC(=O)c1ccc(NC(=O)c2cc(Cl)ccc2OC)cc1OCC | 108 to 111
5 | Cc1nc(N(C)c2ccc(Cl)cc2)sc1-c1ccnc(Nc2ccc(N3CCOCC3)cc2)n1 | 245 to 246
6 | COCCOc1ccc(CCC(=O)NS(=O)(=O)c2ccc(Cl)cc2)c(Oc2ncc(C(F)(F)F)cc2Cl)c1 | 140 to 142
7 | COC(=O)C(OC)c1ccc2oc(-c3ccc(Cl)cc3)nc2c1 (configuration not stated) | 100 to 105
8 | COc1ccc(CN(C)CC=Cc2ccc(NC(=O)c3cccc4c(=O)c5cccc(OC)c5[nH]c34)cc2)cc1OC | 200
9 | Cc1c(CC(=O)N[C@@H](CO[N+](=O)[O-])C(=O)O)cc(-c2ccc(S(C)(=O)=O)cc2)n1-c1ccc(F)cc1 | 109
10 | COC(=O)c1c(-c2nccn2C)c2cnc(N3CCC[C@H]3CO)nc2n(Cc2ccc(OC)c(Cl)c2)c1=O | 142 to 145
11 | c1ccc(-c2cc3c(N4CCOCC4)nnc(N4CCOCC4)c3cn2)cc1 | 186 to 188
12 | CSCc1cc(O)cc2cc(-c3ccc(O)cc3)oc12 | 188 to 190
13 | Cc1noc(NS(=O)(=O)c2ccccc2-c2ccc(-c3ncoc3C)cc2)c1C | 86 to 96
14 | Cc1c(-c2ccccc2)[nH]c(=O)n1C1CCN(CCc2ccccc2)CC1 | 153 to 155
15 | COc1ccc(-n2nc3c(-c4ccccc4)c(C)[nH]cc-3c2=O)cc1 | 300 to 310
16 | COc1cc(-c2cc(C(F)(F)F)nn2-c2ccc(S(C)(=O)=O)c(F)c2)ccc1-c1cocn1 | 148 to 150
17 | Cc1ccc(-c2ccccc2)cc1Cn1c(C(F)F)nn(C)c1=O | 72.7
18 | O=C(OC1CCCCC1C(C[N+](=O)[O-])c1ccc(Cl)cc1)c1ccc([N+](=O)[O-])cc1 (mixture of isomers) | 146 to 148
19 | Cc1cc(NC(=O)N(C)C)no1 | 150 to 152
20 | O=C(Nc1nc(-c2ccccc2)c(-c2nc3ccccc3c(=O)n2-c2ccc(Cl)cc2)s1)c1ccccc1 | > 275
21 | O=C(O)Cc1ccc(OCCNC(=O)C2Cc3ccccc3N2S(=O)(=O)c2ccc(-c3cc(C(F)(F)F)ccc3Cl)cc2)cc1 (configuration not stated) | 84
22 | COC(=O)c1c(C)nc(C)c(C(=O)OC)c1-c1ccccc1[N+](=O)[O-] | 99 to 101
23 | COc1ccc(C(=O)Nc2ccc(C)c(Cl)c2)cc1NC(=S)Nc1cc(Cl)cc(Cl)c1 | 195 to 196

Row | SMILES | melting point [°C]
24 | CC(C)(C)OC(=O)CSc1cccc(-c2nc(=O)c3ccccc3s2)n1 | 170
25 | CCc1ncc2n1N=C(c1ccc([N+](=O)[O-])cc1)c1cc3c(cc1C2)OCO3 | 243 to 245
26 | O=C(NCc1ccccc1)NCC(C(=O)O)C(F)(F)F (configuration not stated) | 183 to 184
27 | CC1(C)C=C(N2Cc3ccccc3C2=O)c2cc(S(=O)(=O)C(F)(F)C(F)(F)C(F)(F)F)ccc2O1 | 164 to 166
28 | CC(=O)c1cc(-c2ccc(S(C)(=O)=O)cc2)c(-c2ccc(F)cc2)s1 | 169 to 172
29 | CN(C)c1ccccc1CS(=O)c1cnc2ccccc2n1 (configuration not stated) | 114 to 115
30 | C=CC(=O)OCCN(CCOC(=O)C=C)c1ccc(N=Nc2snc(C)c2C#N)c(NC(=O)C(C)C)c1 | 92 to 94
31 | CC(Oc1ccc(Oc2ccc(C(F)(F)F)cc2)cc1)C(=O)OCS(C)(=O)=O (configuration not stated) | 87 to 88
32 | CNC(=O)c1cc2c(Oc3ccc(CO)cc3)cncc2s1 | 195 to 196
33 | Cc1cc(C(=O)N[C@H]2CC[C@H](CCN3CCN(c4nccc5c4OCC5)CC3)CC2)on1 | 199
34 | COc1ccc(C(=O)N[C@@H](CNC(=O)c2ccc(C)cc2)c2ccccc2)cc1 | 230 to 238
35 | CC(=O)c1ccc(Oc2ccc(I)cc2)cc1 | 99 to 101
36 | Cc1cc(SCC#Cc2cccc(C(F)(F)F)c2)ccc1OCC(=O)O | 81 to 82
37 | COc1cc(NC(C)CCCN2C(=O)c3ccccc3C2=O)c2nccc(C=Cc3cccc(C(F)(F)F)c3)c2c1 (configuration not stated) | 154 to 156
38 | CCOC(=O)C(=O)Nc1cc(O)ccc1O | > 300
39 | COc1cc2c(cc1Nc1ncc(Cl)c(Nc3ccccc3S(=O)(=O)N3CCCC3)n1)CCN(CCO)CC2 | 110
40 | COc1ccc(N2CC(=O)N(c3ccc(OC)nc3-c3ccc(N(C)C)cc3)CC2=O)cc1 | 138 to 139
41 | CC(C)Nc1nc(N)c(C(=O)N=CNNS(=O)(=O)N(C)C)nc1Cl | 172
42 | CN1Cc2cc(C(O)CN3CCC(COc4ccccc4)CC3)ccc2NC1=O (configuration not stated) | 205
43 | CC(C)(C)OC(=O)NCCNCCNC(=O)OC(C)(C)C | 69 to 71
44 | CNC(=O)N(OC(=O)OC)c1ccc(Cl)cc1 | 145 to 146
45 | CCOC(=S)CC/C(C)=C/Cc1c(OC)c(C)c2c(c1OC(C)=O)C(=O)OC2 | 81 to 84
46 | O=c1c(Br)c(OCc2ccc(F)cc2)ccn1Cc1cccc(F)c1 | 180 to 183

Row | SMILES | melting point [°C]
47 | CCOC(=O)c1cn(C)c2sc(CN3CCOCC3)c(C)c2c1=O | 172 to 173
48 | CCOC(=O)Cn1c2c(c3cc(Cl)cc(Cl)c31)CCN(C(=O)OC(C)(C)C)CC2 | 117 to 120
49 | CC(C)(C)c1cc(-c2cccs2)cc2c1OCC2(C)C | 61 to 63
50 | COc1cc(N)cnc1Cl | 93 to 94
51 | Cc1cc(Oc2ccccc2C(F)(F)F)nn1C(=O)Nc1ccccc1 | 87 to 89
52 | O=C(O)C1CC2CCC1c1[nH]c3ccccc3c12 (configuration not stated) | 212 to 214
53 | CCn1ncc2c(NCC3CCCCC3)c3cc(OCC(O)CO)ccc3nc21 (configuration not stated) | 197 to 199
54 | CC(C)(C)OC(=O)CNC1(c2ccccc2Cl)C(=O)Nc2ccc(Cl)cc21 (configuration not stated) | 217
55 | CC1(O)CCCc2nc3ccccc3c(N)c21 (configuration not stated) | 250
56 | CCCC(NS(=O)(=O)c1ccc(Cl)cc1)C(=S)Nc1ccc(CCC(=O)OC)cc1 (racemic) | 116 to 118
57 | O=[N+]([O-])c1cnc2sccc2c1Cl | 110 to 113
58 | FC(F)(F)c1ccccc1P(=S)(S)c1ccccc1C(F)(F)F | 93 to 94
59 | O=C1NCC(C(F)(F)F)C(=O)N1c1ccccc1 (configuration not stated) | 215 to 216
60 | CN(C)C(=O)Sc1cc(SC(=O)N(C)C)cc(C(N)=O)c1 | 264 to 265
61 | O=C(c1ccccc1)N1CCc2[nH]c3cccc(-c4cc(F)cc(F)c4)c3c2CC1 | 198 to 201
62 | CC(=CN1C(=O)c2ccccc2C1=O)c1ccco1 | 136 to 137
63 | COCCN1CCc2ccc(Nc3ncc(Cl)c(Nc4ccc(OC)c5c4C(=O)N(C)C5)n3)cc2CC1 | 206 to 207
64 | CCC12CCC3C4CCC(=O)C=C4CCC3C1C=CC2=O (configuration not stated) | 157
65 | COC(=O)NNC(=O)C(O)(c1ccccc1)c1ccccc1 | 160 to 161
66 | COc1cccnc1C(=O)NCCNC(=O)OC(C)(C)C | 115
67 | CNS(=O)(=O)c1sc2ccccc2c1CC(=O)O | 190 to 192

Source: a melting point compilation (Tetko et al.; mined from patent text by program, amines drawn as free bases though some values may be those of a salt)
